Results taken from ChEMBL document CHEMBL6074668 (J Med Chem, 2024).
Calls of active or inactive are those of the source. No cut-off for these calls is given here.

Legend:
Format in all cases: functional, cell-based
[1] = molecular target: T1, Kappa-type opioid receptor (Homo sapiens, UniProt P41145); experiment: Agonist activity at human kappa opioid receptor expressed in CHO-K1 cells assessed as inhibition of forskolin-stimulated cAMP accumulation at 10 uM by HitHunter assay based luminescence analysis
T1 sequence (P41145 whole entry): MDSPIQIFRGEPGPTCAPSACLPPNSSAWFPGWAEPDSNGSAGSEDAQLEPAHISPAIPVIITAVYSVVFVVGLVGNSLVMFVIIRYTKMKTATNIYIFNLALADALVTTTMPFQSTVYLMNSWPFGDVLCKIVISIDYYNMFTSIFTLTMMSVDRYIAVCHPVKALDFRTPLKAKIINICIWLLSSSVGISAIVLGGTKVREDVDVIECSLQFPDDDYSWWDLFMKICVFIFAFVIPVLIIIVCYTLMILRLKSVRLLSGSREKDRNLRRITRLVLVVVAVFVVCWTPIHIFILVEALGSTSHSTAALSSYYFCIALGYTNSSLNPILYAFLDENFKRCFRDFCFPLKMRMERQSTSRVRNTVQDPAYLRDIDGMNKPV

[2] = molecular target: T1, Kappa-type opioid receptor; experiment: Agonist activity at human kappa opioid receptor expressed in CHO-K1 cells assessed as inhibition of forskolin-stimulated cAMP accumulation by HitHunter assay based luminescence analysis relative to control
Mu-type opioid receptor [3] = molecular target: T2, Mu-type opioid receptor (Homo sapiens, UniProt P35372); experiment: Agonist activity at human mu opioid receptor expressed in CHO-K1 cells assessed as inhibition of forskolin-stimulated cAMP accumulation at 10 uM by HitHunter assay based luminescence analysis
T2 sequence (P35372 whole entry): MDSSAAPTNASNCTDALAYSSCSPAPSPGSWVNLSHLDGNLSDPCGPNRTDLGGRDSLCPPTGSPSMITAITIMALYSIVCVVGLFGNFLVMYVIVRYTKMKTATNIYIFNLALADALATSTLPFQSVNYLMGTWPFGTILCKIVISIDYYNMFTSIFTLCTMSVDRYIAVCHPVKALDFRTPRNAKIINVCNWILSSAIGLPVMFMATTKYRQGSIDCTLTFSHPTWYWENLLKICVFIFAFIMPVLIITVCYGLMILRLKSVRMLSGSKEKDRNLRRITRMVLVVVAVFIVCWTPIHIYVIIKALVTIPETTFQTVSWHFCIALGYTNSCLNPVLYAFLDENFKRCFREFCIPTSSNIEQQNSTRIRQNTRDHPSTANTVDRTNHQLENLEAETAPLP

Mu-type opioid receptor [4] = molecular target: T2, Mu-type opioid receptor; experiment: Agonist activity at human mu opioid receptor expressed in CHO-K1 cells assessed as inhibition of forskolin-stimulated cAMP accumulation by HitHunter assay based luminescence analysis relative to control
[5] = molecular target: Delta-type opioid receptor (Homo sapiens) (UniProt P41143); experiment: Agonist activity at human delta opioid receptor expressed in CHO-K1 cells assessed as inhibition of forskolin-stimulated cAMP accumulation at <1 uM by HitHunter assay based luminescence analysis
Sequence of Delta-type opioid receptor (Homo sapiens) (P41143 whole entry): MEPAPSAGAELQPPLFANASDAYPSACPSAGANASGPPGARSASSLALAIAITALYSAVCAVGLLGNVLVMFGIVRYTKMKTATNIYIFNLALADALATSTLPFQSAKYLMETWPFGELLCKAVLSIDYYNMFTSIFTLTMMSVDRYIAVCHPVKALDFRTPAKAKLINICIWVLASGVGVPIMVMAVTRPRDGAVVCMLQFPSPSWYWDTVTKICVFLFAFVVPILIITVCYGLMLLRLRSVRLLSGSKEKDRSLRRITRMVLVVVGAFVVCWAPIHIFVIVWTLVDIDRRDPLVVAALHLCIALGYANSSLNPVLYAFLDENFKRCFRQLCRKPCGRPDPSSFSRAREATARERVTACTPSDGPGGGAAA

[6] = molecular target: T1, Kappa-type opioid receptor; experiment: Agonist activity at human kappa opioid receptor expressed in CHO-K1 cells assessed as inhibition of forskolin-stimulated cAMP accumulation by HitHunter assay based luminescence analysis

## COC(=O)C1=C2Nc3ccccc3[C@@]23CCN2C[C@@](O)([C@@H](C)O)[C@@H]1C[C@H]23
[1]
  Activity: inactive
[2]
  Emax: < 10%
Mu-type opioid receptor [3]
  Activity: inactive
Mu-type opioid receptor [4]
  Emax: < 10%

## COC(=O)C1=C2Nc3ccccc3[C@@]23CCN2C[C@@](O)(C(C)=O)[C@@H]1C[C@H]23
[1]
  Activity: inactive
[2]
  Emax: < 10%
Mu-type opioid receptor [3]
  Activity: inactive
Mu-type opioid receptor [4]
  Emax: < 10%

## COC(=O)C1=C2Nc3ccc(Br)cc3[C@@]23CCN2C[C@@](O)([C@@H](C)O)[C@@H]1C[C@H]23
[1]
  Activity: inactive
[2]
  Emax: < 10%
Mu-type opioid receptor [3]
  Activity: inactive
Mu-type opioid receptor [4]
  Emax: < 10%

## C/C=C1/C[N+]2(CCC)CC[C@]34C(=C(C(=O)OC)[C@H]1C[C@@H]32)Nc1ccccc14 (some centres not stated)
[1]
  Activity: inactive
[2]
  Emax: < 10%
Mu-type opioid receptor [3]
  Activity: inactive
Mu-type opioid receptor [4]
  Emax: < 10%

## C=CC[N+]12CC[C@]34C(=C(C(=O)OC)[C@@H](C[C@@H]31)/C(=C\C)C2)Nc1ccccc14 (some centres not stated)
[1]
  Activity: inactive
[2]
  Emax: < 10%
Mu-type opioid receptor [3]
  Activity: inactive
Mu-type opioid receptor [4]
  Emax: < 10%

## C/C=C1/CN2CC[C@]34C(=C(C(=O)OC)[C@H]1C[C@H]23)Nc1ccc(-c2ccccc2)cc14
[2]; filed as agonist
  Emax: 101%
Mu-type opioid receptor [4]; filed as agonist
  Emax: 106%
[5]
  Activity: inactive

## C=CC[N+]12CC[C@]34C(=C(C(=O)OC)[C@@H](C[C@@H]31)/C(=C\C)C2)Nc1ccc(Br)cc14 (some centres not stated)
[6]
  EC50: 650 nM
[2]; filed as agonist
  Emax: 100%
Mu-type opioid receptor [3]
  Activity: inactive
Mu-type opioid receptor [4]
  Emax: < 10%

## C/C=C1/C[N+]2(C)CC[C@]34C(=C(C(=O)OC)[C@H]1C[C@@H]32)Nc1ccccc14 (some centres not stated)
[1]
  Activity: inactive
[2]
  Emax: < 10%
Mu-type opioid receptor [3]
  Activity: inactive
Mu-type opioid receptor [4]
  Emax: < 10%

## C/C=C1/CN2CC[C@]34c5cc(I)ccc5NC3C(C(=O)OC)[C@H]1C[C@H]24 (some centres not stated)
[6]
  EC50: 24 nM
[2]; filed as agonist
  Emax: 100%
Mu-type opioid receptor [3]
  Activity: inactive
Mu-type opioid receptor [4]
  Emax: < 10%
[5]
  Activity: inactive

## CC[C@@H]1CN2CC[C@]34C(=C(C(=O)OC)[C@H]1C[C@H]23)Nc1ccccc14
[6]
  EC50: 1600 nM
[2]; filed as agonist
  Emax: 99%
Mu-type opioid receptor [3]
  Activity: inactive
Mu-type opioid receptor [4]
  Emax: < 10%

## CC[C@@H]1CN2CC[C@]34c5ccccc5N[C@@H]3[C@H](C(=O)OC)[C@H]1C[C@H]24
[1]
  Activity: inactive
[2]
  Emax: < 10%
Mu-type opioid receptor [3]
  Activity: inactive
Mu-type opioid receptor [4]
  Emax: < 10%

## C/C=C1/C[N+]2(CC3CC3)CC[C@]34C(=C(C(=O)OC)[C@H]1C[C@@H]32)Nc1ccc(Br)cc14 (some centres not stated)
[2]; filed as agonist
  Emax: 94%
Mu-type opioid receptor [3]
  Activity: inactive
Mu-type opioid receptor [4]
  Emax: < 10%

## C/C=C1/CN2CC[C@]34C(=C(C(=O)OC)[C@H]1C[C@H]23)Nc1ccc(-c2ccsc2)cc14
[2]; filed as agonist
  Emax: 104%
Mu-type opioid receptor [4]; filed as agonist
  Emax: 107%
[5]
  Activity: inactive

## C/C=C1/CN2CC[C@]34c5cc(Br)ccc5NC3C(C(=O)OC)[C@H]1C[C@H]24 (some centres not stated)
[2]; filed as agonist
  Emax: 100%

## C/C=C1/CN2CC[C@]34C(=C(C(=O)OC)[C@H]1C[C@H]23)Nc1ccc(C#N)cc14
[6]
  EC50: 81 nM
[2]; filed as agonist
  Emax: 102%
Mu-type opioid receptor [3]
  Activity: inactive
Mu-type opioid receptor [4]
  Emax: < 10%
[5]
  Activity: inactive

## C/C=C1/CN2CC[C@]34c5ccccc5N[C@@H]3[C@H](C(=O)OC)[C@H]1C[C@H]24
[1]
  Activity: inactive
[2]
  Emax: < 10%
Mu-type opioid receptor [3]
  Activity: inactive
Mu-type opioid receptor [4]
  Emax: < 10%

## C/C=C1/C[N+]2(CC3CC3)CC[C@]34C(=C(C(=O)OC)[C@H]1C[C@@H]32)Nc1ccccc14 (some centres not stated)
[6]
  EC50: 4700 nM
[2]; filed as agonist
  Emax: 113%
Mu-type opioid receptor [3]
  Activity: inactive
Mu-type opioid receptor [4]
  Emax: < 10%

## C/C=C1/C[N+]2(Cc3ccccc3)CC[C@]34C(=C(C(=O)OC)[C@H]1C[C@@H]32)Nc1ccccc14 (some centres not stated)
[1]
  Activity: inactive
[2]
  Emax: < 10%
Mu-type opioid receptor [4]; filed as agonist
  Emax: 112%

## C[C@@H](NC(=O)[C@@H](N)Cc1ccc(O)cc1)C(=O)NCC(=O)N(C)[C@@H](Cc1ccccc1)C(=O)NCCO
[1]
  Activity: inactive

## C/C=C1/C[N+]2(C)CC[C@]34C(=C(C(=O)OC)[C@H]1C[C@@H]32)Nc1ccc(Br)cc14 (some centres not stated)
[6]
  EC50: 940 nM
[2]; filed as agonist
  Emax: 102%
Mu-type opioid receptor [3]
  Activity: inactive
Mu-type opioid receptor [4]
  Emax: < 10%
